We go through two molecules from patent US7354739B2, “TML polynucleotides” (ZymoGenetics, Inc., priority 1997, dated 2008).

Assay [1] concerns antral portion of the stomach. Description: Antral stomach contractions monitored by transducing crystals in anesthetized rats. The assay is classed as in vivo, Sprague-Dawley rats. From the text: Two male Sprague-Dawley rats, approximately 12 weeks old (Harlan, Indianapolis, Ind.) were anesthetized with urethane and their stomachs were exposed through a small abdominal incision. Two 2.4 mm transducing crystals (Sonometrics, Ontario, Canada) were placed on the antral portion of the stomach such that circular contractions could be monitored as a change in the distance between the two crystals. The crystals were attached with VETBOND TISSUE ADHESIVE (3M, St. Paul, Minn.).
The amplitude of the NE-induced decrease was approximately 50% of the acetylcholine-induced increase in distance. Both responses were transient.
A negative control of 10 μl of phosphate buffer solution (PBS) applied topically between the crystals had no effect.
A 14 amino acid zsig33 peptide (from amino acid residue 24 (Gly) to amino acid residue 37 (Gln) of SEQ ID NO: 2) was dissolved in PBS) and 10 μl was applied topically for a final concentration of 1 μg, […]

Assay [2] has as its system post-prandial glucose absorption. Description: Oral glucose challenge after oral zsig33 peptide in ob/ob mice. The assay is classed as in vivo. The settings on record: 100 μg orally, 30 minutes prior to an oral glucose challenge. On the procedure:
Eight female ob/ob mice, approximately 6 weeks old (Jackson Labs, Bar Harbor, Me.) were adapted to a 4 hour daily feeding schedule for two weeks. After two weeks on the feeding schedule, the mice were give 100 μg of a 14 amino acid amino zsig33 peptide (from amino acid residue 24 (Gly) to amino acid residue 37 (Gln) of SEQ ID NO: 2) in 100 μl sterile 0.1% BSA by oral gavage, immediately after their eating period (post-prandially). Thirty minutes later, the mice were challenged orally with a 0.5 ml volume of 25% glucose. Retroorbital bleeds were done to determine serum glucose levels. Blood was drawn prior to zsig33 dosing, prior to oral glucose challenge, and at 1, 2, 4, and 20 hours following the glucose challenge.

The next assay relates to stomach. The assay is described as follows: Transit of phenol red through the stomach (gastric emptying) of fasted rats. Particulars: 1 μg applied topically to the stomach; 30 minutes after gavage; compared to a scrambled peptide. The assay is classed as in vivo, Sprague-Dawley rats. The method, then:
The effect of topically applied zsig33 peptide (amino acid 24 to 37 of SEQ ID NO: 2) on the transit of phenol red through the stomachs of fasted male Sprague-Dawley rats (Harlan, Indianapolis, Ind.) was evaluated. The rats (6 animals, 8 weeks old) were fasted 24 hrs prior to being anesthetized with urethane(0.5 ml/100 grams of 25% solution). After anesthetizing, the animals were orally gavaged with 1 ml of Phenol Red solution (50 mg/ml in 2% methylcellulose solution). The stomach of each animal was exposed through a small abdominal incision and either 1 μg zsig33 peptide or a 14 amino acid control of a scrambled sequence peptide was applied topically to the stomach five minutes following the gavage. The amount of Phenol Red remaining in the stomach was determined by measuring optical density of the extracted stomach contents 30 minutes after the gavage.

Assay [3] is described as follows: Fourteen-day twice-daily oral dosing in ob/ob mice: body weight, food intake, glucose clearance. The assay is classed as in vivo. Particulars: 1 μg/mouse orally twice daily for fourteen days. On the procedure: Sixteen female ob/ob mice, 8 weeks old, (Jackson Labs, Bar Harbor, Me.) were adapted to a special 4 hour daily feeding schedule for two weeks. The were fed ad libitum from 7:30-11:30 am daily. After two weeks on the feeding schedule, the mice were divided into two groups of 8. One group was given 1.0 μg/mouse of zsig33-1 (14 amino acid peptide) and the other vehicle (a 14 amino acid scrambled sequence peptide) in 100 μl sterile 0.1% BSQA by oral gavage just prior to receiving food, and at the end of the 4 hour feeding period. The mice were […] twice daily for fourteen days, during which time food intake and body weight was measured daily. On day 14, immediately after the second oral gavage of the zsig33-1 peptide, the mice were challenged orally with an 0.5 ml volume of 25% glucose. Retro-orbital bleeds were done to determine serum glucose levels immediately prior to administration of the zsig33-1 peptide or vehicle ([…].), and also at 0, 1, 2, and 4 hours following the glucose challenge.

As to “zsig33-1: peptide corresponding to amino acid residue 24 (Gly) to residue 37 (Gln) of SEQ ID NO: 2; residues 1 to 14 of SEQ ID NO:11 (GSSFLSPEHQRVQQRKES; listed as Homo sapiens)”, the “change in crystal distance” value in assay [1] (1 μg in 10 μl PBS applied topically) was “sustained, rhythmic increase and decrease in crystal distance”. The “rate and amplitude of the contractions (dose dependence)” value in assay [1] (10 μg and 100 μg applied topically, compared with 1 μg) is “enhanced responses in both rate and amplitude”. In addition, the “post-prandial glucose absorption (serum glucose)” value in assay [2] is recorded as “enhanced post-prandial glucose absorption”. Further, the “reduction of the amount of Phenol Red remaining in the stomach” value in the assay with stomach was “approximately 25%”. In assay [3], the daily body weight entry was “no affect” and the food intake result is listed as “no affect”.
As to `NC[C@H](O)c1ccc(O)c(O)c1` [norepinephrine, reference compound], the “amplitude of the NE-induced decrease relative to the acetylcholine-induced increase in distance” value in assay [1] (10 μl of 1 μM applied topically) is given as “approximately 50%”. Also, the “change in the distance between the two crystals” value in assay [1] (10 μl of 1 μM applied topically to the stomach between the crystals) is given as “reduction in the distance between the two crystals”.
